In patent US11654121B1 (priority 2022, dated 2023):

Experiments:
[1] = test system: SARS-CoV-2; experiment: CellTiter-Glo host cell viability assay of SARS-CoV-2-infected Vero E6 cells; type: cell-based; details: for host cell viability: hypericin 0 μM
Protocol: Vero E6 cells were seeded at 25,000 cells/well in 96-well plates and SARS-CoV-2 was added into the wells at a MOI of 0.01. After 1 hour, hypericin (Cayman Chemical, ≥95% purity) was added into the wells at final concentrations of 1.5625-100 μM or the vehicle only control (DMSO), followed by the addition of remdesivir (Novation Chemicals, 98% purity) at final concentrations of 0.3125-5 μM or the vehicle only control (DMSO), and incubated at 37° C.
After 72 hours of incubation, host cell viability was assessed using CellTiter-Glo® Luminescent Cell Viability Assay (Promega) according to the manufacturer's instructions. Results were normalized to the highest dose of remdesivir alone (5 μM) and are summarized below in Table 1.

[2] = test system: SARS-CoV-2 virus [B.1.351]; type: in vivo, mice; details: Hypericin 20 mg/kg alone, pre-treatment from two days prior to infection; day 4 post-infection

Row | Compound | host cell viability ([1]; remdesivir 0.3125 μM, 72 h, normalized to remdesivir 5 μM alone) | host cell viability ([1]; remdesivir 0.625 μM, 72 h, normalized to remdesivir 5 μM alone) | host cell viability ([1]; remdesivir 1.25 μM, 72 h, normalized to remdesivir 5 μM alone) | host cell viability ([1]; remdesivir 2.5 μM, 72 h, normalized to remdesivir 5 μM alone) | mice in which all infectious titers were eliminated [2] | viability at 1.563 µM ([1]; Severe acute respiratory syndrome coronavirus 2, Vero C1008, hypericin 1.563 μM, remdesivir 0 μM, 72 h, normalized to remdesivir 5 μM alone) | viability at 3.125 µM ([1]; Severe acute respiratory syndrome coronavirus 2, Vero C1008, hypericin 3.125 μM, remdesivir 0 μM, 72 h, normalized to remdesivir 5 μM alone) | viability at 6.25 µM ([1]; Severe acute respiratory syndrome coronavirus 2, Vero C1008, hypericin 6.25 μM, remdesivir 0 μM, 72 h, normalized to remdesivir 5 μM alone) | viability at 12.5 µM ([1]; Severe acute respiratory syndrome coronavirus 2, Vero C1008, hypericin 12.5 μM, remdesivir 0 μM, 72 h, normalized to remdesivir 5 μM alone) | viability at 25 µM ([1]; Severe acute respiratory syndrome coronavirus 2, Vero C1008, hypericin 25 μM, remdesivir 0 μM, 72 h, normalized to remdesivir 5 μM alone) | viability at 50 µM ([1]; Severe acute respiratory syndrome coronavirus 2, Vero C1008, hypericin 50 μM, remdesivir 0 μM, 72 h, normalized to remdesivir 5 μM alone) | viability at 100 µM ([1]; Severe acute respiratory syndrome coronavirus 2, Vero C1008, hypericin 100 μM, remdesivir 0 μM, 72 h, normalized to remdesivir 5 μM alone) | viability at 50 µM ([1]; Severe acute respiratory syndrome coronavirus 2, Vero C1008, hypericin alone (12.5-100 μM), up to, at 50 μM) | effect on host cell viability in words ([1]; hypericin (25-50 μM) alone)
1 | CCC(CC)COC(=O)[C@H](C)N[P@](=O)(OC[C@H]1O[C@@](C#N)(c2ccc3c(N)ncnn23)[C@H](O)[C@@H]1O)Oc1ccccc1 [Remdesivir, remdesivir, reference compound] | 19.8% | 21.9% | 25.2% | 38.1% | – | – | – | – | – | – | – | – | – | –
2 | Cc1cc(O)c2c(=O)c3c(O)cc(O)c4c5c(O)cc(O)c6c(=O)c7c(O)cc(C)c8c1c2c(c34)c(c78)c65 [Hypericin] | – | – | – | – | 5 out of 7 | 14.6% | 12.9% | 12.8% | 20.4% | 62% | 62.6% | 38% | ≤ 62% | modest improvements in host cell viability
